No end group written: not given here.
What was measured:
Carboxypeptidase Y = target: T1, Carboxypeptidase Y (Saccharomyces cerevisiae, UniProt P00729); assay: Reactivity of peptidase formulations against synthetic peptides: carboxypeptidase Y alone; type: biochemical; details: for Existence of IPP or VPP peaks: no aminopeptidase, carboxypeptidase Y, phosphate buffer pH 5.3, 37° C. 3 hours, HPLC
T1 construct: purchased Sigma Chemical Co
T1 sequence (P00729 112-532): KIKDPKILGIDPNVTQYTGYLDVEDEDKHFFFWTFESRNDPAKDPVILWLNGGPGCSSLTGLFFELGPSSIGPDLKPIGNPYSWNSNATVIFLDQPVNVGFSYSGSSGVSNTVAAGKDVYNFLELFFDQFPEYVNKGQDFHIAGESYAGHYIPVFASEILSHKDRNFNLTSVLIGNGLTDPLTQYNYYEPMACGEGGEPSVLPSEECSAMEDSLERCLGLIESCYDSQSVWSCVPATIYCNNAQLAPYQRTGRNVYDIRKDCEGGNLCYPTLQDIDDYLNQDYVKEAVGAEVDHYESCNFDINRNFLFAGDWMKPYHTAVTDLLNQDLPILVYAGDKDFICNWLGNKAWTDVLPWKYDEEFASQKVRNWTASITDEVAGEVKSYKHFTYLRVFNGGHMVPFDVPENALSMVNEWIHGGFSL
Procedure: (§1) Peptides shown in Table 1 were chemically synthesized. […] All of these synthetic peptides were synthesized with the automatic peptide synthesizing machine PPSM-8 (manufactured by Shimadzu Corporation).
(§2) Each synthetic peptide was dissolved at the concentration of 10 μg/ml in 100 mM phosphate buffer pH 5.3 as to Experiments 1-1 to 1-4, 1-10 to 1-12, 1-16 and 1-21, or in 50 mM Tris-HCl buffer pH 8.0 as to other Experiments. Each of various peptidase formulations shown in Table 1 was then added so that the concentration thereof became 0.01 μg/ml, and the reaction was performed at 37° C. for 3 hours. After the enzyme reaction, the mixture was analyzed by the reverse phase high performance liquid chromatography (HPLC). […] The fractions of the detected peak were collected and amino acid sequence analysis was performed by the automatic peptide analyzer model PPSQ-10 (manufactured by Shimadzu Corporation). […]

[1] = tested on: fraction 4 (peptidase derived from Lactobacillus helveticus); assay: Reaction of fraction 4 with chemically synthesized intermediate peptides as substrates; type: biochemical; details: substrate peptide reacted with fraction 4, HPLC
Procedure: A milk medium containing 9 wt % skim milk was inoculated with lactic acid bacteria Lactobacillus helveticus CM4 strain (deposited at National Institute of Bioscience and Human-Technology (1-3, Higashi 1 chome Tsukuba-shi Ibaraki-ken 305, Japan) under deposition number FEFM BP-6060 on Aug. 15, 1997) (referred to hereinbelow as CM4 strain). The bacteria were cultured at 37° C. for 24 hours. The CM4 strain has been accorded the aforementioned accession number under the Budapest Treaty on the International Recognition of the Deposit of Microorganisms for the Purposes of Patent Procedure. All restrictions on the availability to the public of this strain will be irrevocably removed upon the granting of a patent. To 500 ml of a fresh 9 wt % milk medium, cultured mixture was added at 5 wt %. […] was performed at 37° C. and at the pH of 6.5. Five hours after the start of pH stat culturing, sodium citrate was added so that the final concentration thereof became 2 wt %. The mixture was stirred for 30 minutes at room temperature. After confirming that the cultured liquid became clear, cell bodies were collected by centrifugation at 5000 g for 10 minutes. The cell bodies were washed twice with 50 mM phosphate buffer containing 150 mM NaCl pH 6.8, and suspended in 20 ml of 50 mM tris-Cl pH 8.0, and then crushed with an ultrasonic crusher (model 5203, manufactured by Ohtake Works Co.). Centrifugation at 15000 g was performed for 10 minutes for removing the precipitant and collecting the supernatant as a crude extract. 5 ml of the crude extract was passed through 1 ml of DEAE-sepharose column (manufactured by Pharmacia Corporation) that has been pre-equilibrated with the tris buffer. The column was washed with 5 ml of the tris buffer and then sequentially washed with 3 ml of tris buffers containing 50 mM, 100 mM, 150 mM, 200 mM, 300 mM and 500 mM NaCl, for fractionation.
An intermediate peptide Val-Pro-Pro-Phe-Leu was chemically synthesized. The synthesized peptide was dissolved at 10 μg/ml in 100 mM phosphate buffer (pH 6.1). This solution and one of the fractions 1 to 6 were mixed at the volume ratio of 9:1, and reacted at 37° C. for 30 minutes.
Further, it was confirmed that the tripeptide Ile-Pro-Pro was produced from the peptides Ile-Pro-Pro-Leu-Thr-Gln-Thr and Ile-Pro-Pro-Leu-Thr.

[2] = tested on: spontaneous hypertension rats (SHR); details: known in the prior art; cited from earlier work
hypertensive patients = details: known in the prior art; cited from earlier work
[3] = target: angiotensin converting enzyme (ACE) (Homo sapiens, UniProt P12821); details: known in the prior art; cited from earlier work
angiotensin converting enzyme (ACE), sequence (P12821 30-1306, species assumed): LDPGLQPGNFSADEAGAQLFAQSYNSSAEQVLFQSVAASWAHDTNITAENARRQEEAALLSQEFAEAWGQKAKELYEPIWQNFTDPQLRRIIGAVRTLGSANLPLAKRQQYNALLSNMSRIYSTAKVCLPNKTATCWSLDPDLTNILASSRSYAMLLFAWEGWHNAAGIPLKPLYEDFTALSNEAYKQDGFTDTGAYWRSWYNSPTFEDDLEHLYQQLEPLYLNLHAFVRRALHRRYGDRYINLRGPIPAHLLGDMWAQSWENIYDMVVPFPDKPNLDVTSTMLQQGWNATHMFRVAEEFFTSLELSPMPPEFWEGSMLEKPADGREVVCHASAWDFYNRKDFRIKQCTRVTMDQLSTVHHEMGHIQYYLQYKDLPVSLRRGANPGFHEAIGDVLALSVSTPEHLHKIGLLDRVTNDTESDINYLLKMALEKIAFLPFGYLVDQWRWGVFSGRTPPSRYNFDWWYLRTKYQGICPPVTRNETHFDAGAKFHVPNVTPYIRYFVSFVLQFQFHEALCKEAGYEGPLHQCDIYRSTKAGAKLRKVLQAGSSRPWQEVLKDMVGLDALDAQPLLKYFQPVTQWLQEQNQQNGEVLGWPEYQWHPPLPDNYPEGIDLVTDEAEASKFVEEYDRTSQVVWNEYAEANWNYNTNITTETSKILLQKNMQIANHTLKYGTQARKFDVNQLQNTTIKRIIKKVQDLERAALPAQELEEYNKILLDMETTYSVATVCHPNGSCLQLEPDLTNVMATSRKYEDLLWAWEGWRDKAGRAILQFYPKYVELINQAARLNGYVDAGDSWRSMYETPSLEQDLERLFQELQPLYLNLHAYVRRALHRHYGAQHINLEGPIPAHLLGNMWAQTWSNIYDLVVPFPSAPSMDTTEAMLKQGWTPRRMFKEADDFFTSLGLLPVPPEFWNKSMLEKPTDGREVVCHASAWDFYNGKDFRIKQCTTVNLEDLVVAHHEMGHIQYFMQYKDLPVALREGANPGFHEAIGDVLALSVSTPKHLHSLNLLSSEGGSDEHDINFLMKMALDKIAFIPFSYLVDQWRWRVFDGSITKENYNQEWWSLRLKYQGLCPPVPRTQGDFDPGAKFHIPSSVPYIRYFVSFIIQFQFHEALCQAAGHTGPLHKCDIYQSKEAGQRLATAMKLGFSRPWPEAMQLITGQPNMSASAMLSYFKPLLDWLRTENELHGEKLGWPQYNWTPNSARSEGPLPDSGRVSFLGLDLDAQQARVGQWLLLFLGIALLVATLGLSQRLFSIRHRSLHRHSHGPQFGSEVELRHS

[4] = reported in JP-A-11-100328; cited from earlier work
[5] = tested on: synthetic peptide consisting of the 28 amino acids (SEQ ID NO: 28); assay: Two step reaction of proteinase and fraction 4 on the 28 amino acid synthetic peptide; type: biochemical; details: proteinase 0.1 μg/ml on 28-mer 10 μg/ml, pH 6.1, 37° C. 5 hours, heat inactivation, then fraction 4; HPLC
Procedure: To 10 μg/ml of the synthetic peptide consisting of the 28 amino acids that is the same as the one used in Experiment 2 (in 100 mM phosphate buffer pH 6.1), each of the commercially available proteinase enzymes for food processing shown in Table 4 was added at 0.1 μg/ml. The mixture was reacted at 37° C. for 5 hours. After finishing the reaction, the reacted liquid was heated at 100° C. for 5 minutes for inactivating the proteinase, and then reacted with the fraction 4 obtained in Experiment 4.

[6] = tested on: Aminipeptidase I + Carboxypeptidase Y; assay: Reactivity of peptidase formulations against synthetic peptides: aminopeptidase I + carboxypeptidase Y; type: biochemical; details: phosphate buffer pH 5.3, 37° C. 3 hours, HPLC
Procedure: as §1, §2

For IPPLTQT, the “Existence of IPP or VPP peaks” value (Carboxypeptidase Y) was “IPP”, the Peptide produced [1] was “Ile Pro Pro” and the Peptide produced ([1]; listed as Ile-Pro-Pro-Leu-Thr-Gln-Thr) was “Ile-Pro-Pro”.

In the case of “Ile Pro Pro (IPP) [Ile-Pro-Pro, tripeptide produced by the method]”, the “anti-hypertensive activity on spontaneous hypertension rats (SHR)” value [2] is listed as “strong anti-hypertensive activity”, the “anti-hypertensive effect on hypertensive patients” value (hypertensive patients) is listed as “anti-hypertensive effect” and the ACE inhibitory activity [3] is listed as “strong”. The anti-stress activity [4] was “anti-stress activity”.

With Ile Pro Pro Leu Thr (IPPLT) the Peptide produced [1] was “Ile Pro Pro” and the Peptide produced ([1]; listed as Ile-Pro-Pro-Leu-Thr) was “Ile-Pro-Pro”.

For Leu-Pro-Pro [reference compound], the ACE inhibitory activity [3] is listed as “ACE inhibitory activity”.

In the case of Pepsin, the “Production of the tripeptides Ile-Pro-Pro and Val-Pro-Pro” value (from here on “Production”) [5] is reported as “No”.

For QNIPPLTQT, the “Existence of IPP or VPP peaks” value [6] was “IPP” and the “Existence of IPP or VPP peaks” value ([6]; listed as Gln-Asn-Ile-Pro-Pro-Leu-Thr-Gln-Thr) was “production of the tripeptides Ile-Pro-Pro or Val-Pro-Pro was also recognized”.

In the case of VPPFLQ, the “Existence of IPP or VPP peaks” value (Carboxypeptidase Y) is reported as “VPP”, the Peptide produced [1] is reported as “Val Pro Pro” and the Peptide produced ([1]; listed as Val-Pro-Pro-Phe-Leu-Gln) is reported as “Val-Pro-pro”.

For VVVPPFLQ, the “Existence of IPP or VPP peaks” value [6] was “VPP” and the “Existence of IPP or VPP peaks” value ([6]; listed as Val-Val-Val-Pro-Pro-Phe-Leu-Gln) was “production of the tripeptides Ile-Pro-Pro or Val-Pro-Pro was also recognized”.

In the case of “Val Pro Pro (VPP) [Val-Pro-Pro, tripeptide produced by the method]”, the “anti-hypertensive activity on spontaneous hypertension rats (SHR)” value [2] is given as “strong anti-hypertensive activity”, the “anti-hypertensive effect on hypertensive patients” value (hypertensive patients) is given as “anti-hypertensive effect” and the anti-stress activity [4] is given as “anti-stress activity”.

With Val Pro Pro Phe (VPPF) the “Existence of IPP or VPP peaks” value (Carboxypeptidase Y) was “VPP”.

In the case of Val Pro Pro Phe Leu (VPPFL), the Peptide produced [1] is reported as “Val Pro Pro” and the Peptide produced ([1]; listed as Val-Pro-Pro-Phe-Leu) is reported as “Val-Pro-pro”.

B1: carboxy peptidase Y: Carboxypeptidase Y (manufactured by Sigma Chemical Co.) (protein, UniProt P00729 112-532, looked up)
Carboxypeptidase Y: KIKDPKILGIDPNVTQYTGYLDVEDEDKHFFFWTFESRNDPAKDPVILWLNGGPGCSSLTGLFFELGPSSIGPDLKPIGNPYSWNSNATVIFLDQPVNVGFSYSGSSGVSNTVAAGKDVYNFLELFFDQFPEYVNKGQDFHIAGESYAGHYIPVFASEILSHKDRNFNLTSVLIGNGLTDPLTQYNYYEPMACGEGGEPSVLPSEECSAMEDSLERCLGLIESCYDSQSVWSCVPATIYCNNAQLAPYQRTGRNVYDIRKDCEGGNLCYPTLQDIDDYLNQDYVKEAVGAEVDHYESCNFDINRNFLFAGDWMKPYHTAVTDLLNQDLPILVYAGDKDFICNWLGNKAWTDVLPWKYDEEFASQKVRNWTASITDEVAGEVKSYKHFTYLRVFNGGHMVPFDVPENALSMVNEWIHGGFSL
For B1, the “Bond cleavage by the enzyme (in words)” value (Carboxypeptidase Y; reaction at pH 5.3) was “capable of effectively cleave the bond between Pro and Leu in Pro-Pro-Leu and the bond between Pro and Phe in Pro-Pro-Phe”.

B2: Subtilisin Carlsberg: proteinase, Bacillus licheniformis, Sigma Chemical Co. (protein, UniProt P00780 106-379, looked up)
Subtilisin Carlsberg: AQTVPYGIPLIKADKVQAQGFKGANVKVAVLDTGIQASHPDLNVVGGASFVAGEAYNTDGNGHGTHVAGTVAALDNTTGVLGVAPSVSLYAVKVLNSSGSGSYSGIVSGIEWATTNGMDVINMSLGGASGSTAMKQAVDNAYAKGVVVVAAAGNSGSSGNTNTIGYPAKYDSVIAVGAVDSNSNRASFSSVGAELEVMAPGAGVYSTYPTNTYATLNGTSMASPHVAGAAALILSKHPNLSASQVRNRLSSTATYLGSSFYYGKGLINVEAAAQ
For B2, the “Production” value [5] was “No”.

B3: Trypsin (Type I): proteinase, bovine pancreas, Sigma Chemical Co. (protein, UniProt P00760 24-246, looked up)
Serine protease 1: IVGGYTCGANTVPYQVSLNSGYHFCGGSLINSQWVVSAAHCYKSGIQVRLGEDNINVVEGNEQFISASKSIVHPSYNSNTLNNDIMLIKLKSAASLNSRVASISLPTSCASAGTQCLISGWGNTKSSGTSYPDVLKCLKAPILSDSSCKSAYPGQITSNMFCAGYLEGGKDSCQGDSGGPVVCSGKLQGIVSWGSGCAQKNKPGVYTKVCNYVSWIKQTIASN
With B3 the “Production” value [5] was “No”.

B4: Subtilisin BPN: proteinase, Bacillus amyloliquefaciens, Sigma Chemical Co. (protein, UniProt P00782 108-382, looked up)
Subtilisin BPN': AQSVPYGVSQIKAPALHSQGYTGSNVKVAVIDSGIDSSHPDLKVAGGASMVPSETNPFQDNNSHGTHVAGTVAALNNSIGVLGVAPSASLYAVKVLGADGSGQYSWIINGIEWAIANNMDVINMSLGGPSGSAALKAAVDKAVASGVVVVAAAGNEGTSGSSSTVGYPGKYPSVIAVGAVDSSNQRASFSSVGPELDVMAPGVSIQSTLPGNKYGAYNGTSMASPHVAGAAALILSKHPNWTNTQVRSSLENTTTKLGDSFYYGKGLINVQAAAQ
In the case of B4, the “Production” value [5] is reported as “No”.

From US6994987B1, “Process for producing tripeptides” (Calpis Co., Ltd., priority 1999, dated 2006)
